The values below are quoted from earlier work in US10052295B2, “Method, composition and package for bowel cleansing” (priority 2011, dated 2018).

With `OC[C@@H](O)[C@@H](O)CO` [erythritol], where the note is “doses as high as 50 mg (Storey 2006)”, the GI symptoms result is “not reported to produce any significant GI symptoms”.

Turning to `OC[C@@H](O)[C@H](O)[C@@H](O)CO` [xylitol], where the note is “doses as high as 50 grams per day for over two years (Makinen 1976)”, the “toxic effects in humans” value is on record as “no toxic effects”. The watery feces result (doses over 35 grams, compared with erythritol (Storey 2006)) is recorded as “significantly more watery feces”.
